The assay has as its system L1210 leukemia ip in BDF1 mice, survival T/C. The assay can be described thus: NCI In Vivo Anticancer Drug Screen. Data for tumor model L1210 Leukemia (intraperitoneal) in B6D2F1 (BDF1) mice. To be noted: endpoint: mean survival time, higher = longer survival. In short, it runs like this: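 Survival endpoint. Drug-treated group vs vehicle group, expressed as T divided by C. Tumor passaged by transplantation.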

The mark [1] stands for this setting: dose: 100.0 mg/kg/injection, schedule: Q01DX001 (ip), vehicle: saline.
[2] abbreviates: dose: 200.0 mg/kg/injection, schedule: Q01DX001 (ip), vehicle: saline.
Setting [3] is: dose: 100.0 mg/kg/injection, schedule: Q01DX001 (ip), vehicle: carboxymethylcellulose (CMC).
Setting [4] is: dose: 200.0 mg/kg/injection, schedule: Q01DX001 (ip), vehicle: carboxymethylcellulose (CMC).
The mark [5] stands for this setting: dose: 400.0 mg/kg/injection, schedule: Q01DX001 (ip), vehicle: carboxymethylcellulose (CMC).
Setting [6] is: dose: 100.0 mg/kg/injection, schedule: Q01DX009 (ip), vehicle: Klucel (hydroxypropylcellulose) (HPC).
[7] abbreviates: dose: 200.0 mg/kg/injection, schedule: Q01DX009 (ip), vehicle: Klucel (hydroxypropylcellulose) (HPC).
Where [8] appears, read: dose: 400.0 mg/kg/injection, schedule: Q01DX009 (ip), vehicle: Klucel (hydroxypropylcellulose) (HPC).
Setting [9] is: dose: 100.0 mg/kg/injection, schedule: Q04DX002 (ip), vehicle: Klucel (hydroxypropylcellulose) (HPC).
Setting [10] is: dose: 200.0 mg/kg/injection, schedule: Q04DX002 (ip), vehicle: Klucel (hydroxypropylcellulose) (HPC).
The mark [11] stands for this setting: dose: 100.0 mg/kg/injection, schedule: Q01DX009 (ip), vehicle: saline with Tween-80.
Where [12] appears, read: dose: 200.0 mg/kg/injection, schedule: Q01DX009 (ip), vehicle: saline with Tween-80.
[13] abbreviates: dose: 400.0 mg/kg/injection, schedule: Q01DX009 (ip), vehicle: saline with Tween-80.
[14] abbreviates: dose: 100.0 mg/kg/injection, schedule: Q04DX003 (ip), vehicle: saline with Tween-80.
[15] abbreviates: dose: 200.0 mg/kg/injection, schedule: Q04DX003 (ip), vehicle: saline with Tween-80.
Where [16] appears, read: dose: 400.0 mg/kg/injection, schedule: Q04DX003 (ip), vehicle: saline with Tween-80.
Where [17] appears, read: dose: 400.0 mg/kg/injection, schedule: Q01DX001 (ip), vehicle: saline.
Where [18] appears, read: dose: 100.0 mg/kg/injection, schedule: Q04DX003 (ip), vehicle: Klucel (hydroxypropylcellulose) (HPC).
Where [19] appears, read: dose: 200.0 mg/kg/injection, schedule: Q04DX003 (ip), vehicle: Klucel (hydroxypropylcellulose) (HPC).
The mark [20] stands for this setting: dose: 400.0 mg/kg/injection, schedule: Q04DX003 (ip), vehicle: Klucel (hydroxypropylcellulose) (HPC).
The mark [21] stands for this setting: dose: 400.0 mg/kg/injection, schedule: Q04DX002 (ip), vehicle: saline with Tween-80.
Setting [22] is: dose: 50.0 mg/kg/injection, schedule: Q01DX009 (ip), vehicle: saline.

“And” between values parts separate entries of the source, which are not always exact repeats. Identical values can stand only once. Inconclusive results and toxic doses are left out.

For `CCCCNC(=O)/C(=C\c1ccccc1)NC(C)=O`, the T/C is 92 % of control (dose: 3.0 mg/kg/injection, schedule: Q04DX003 (ip), vehicle: DMSO); 92 % of control (dose: 6.0 mg/kg/injection, schedule: Q04DX003 (ip), vehicle: DMSO); 96 % of control (dose: 6.25 mg/kg/injection, schedule: Q01DX009 (ip), vehicle: DMSO); 94 % of control (dose: 12.0 mg/kg/injection, schedule: Q04DX003 (ip), vehicle: DMSO); 93 % of control (dose: 12.5 mg/kg/injection, schedule: Q01DX009 (ip), vehicle: DMSO); 100 % of control (dose: 12.5 mg/kg/injection, schedule: Q04DX003 (ip), vehicle: DMSO).
On to `N#CCCCSC(=N)N`, for which the T/C reads like this: under setting [1], 106 % of control; under setting [2], 104 % of control.
In the case of `CCCCCC(C)(O)CCCCC`, the T/C under setting [3] was 101 % of control, the T/C under setting [4] is 97 % of control and the T/C under setting [5] is 97 % of control.
Turning to `CC1CCCN(C(=O)Nc2cccc(Cl)c2Cl)C1` (centres undefined), the T/C was 87 % of control under setting [6], 92 % of control under setting [7] and 96 % of control under setting [8].
As for `NC(=O)N(CCCO)/N=C\c1ccc([N+](=O)[O-])o1`, the T/C is, setting by setting: under setting [9], 100 % of control; under setting [10], 96 % of control.
On to `CCCc1cc(CCC)nc(NNc2nc(CCC)cc(CCC)n2)n1`, for which the T/C under setting [11] is 104 % of control, the T/C under setting [12] was 96 % of control and the T/C under setting [13] was 110 % of control.
For `Clc1ccc(SSc2ccc(Cl)cc2)cc1`, the T/C under setting [14] is 102 % of control, the T/C under setting [15] was 94 % of control and the T/C under setting [16] is 98 % of control.
With `CCOC(=S)Sc1ccc2c(c1)-c1ccc(F)cc1C2=O`, the T/C is 111 % of control under setting [3], 95 % of control under setting [4] and 98 % of control under setting [5].
As for `O=C(C(=O)c1ccc(O)cc1O)c1ccc(O)cc1O`, the T/C was 97 % of control under setting [1], 97 % of control under setting [2] and 97 % of control under setting [17].
In the case of `CN(C)c1ccc(C(/C=N\O)(c2ccc(N(C)C)cc2)c2ccc(N(C)C)cc2)cc1`, the T/C under setting [6] is 101 % of control; the T/C under setting [18] was 90 % of control; the T/C under setting [7] was 96 % of control; the T/C under setting [19] was 95 % of control; the T/C under setting [8] is 101 % of control; the T/C under setting [20] was 93 % of control.
Consider `O=S(=O)(c1ccccc1)C1CN=NC1c1ccccc1` (centres undefined), for which the T/C was 95 % of control (dose: 50.0 mg/kg/injection, schedule: Q01DX009 (ip), vehicle: acetone); 100 % of control under setting [1]; 93 % of control (dose: 100.0 mg/kg/injection, schedule: Q01DX009 (ip), vehicle: acetone); 94 % of control under setting [2]; 92 % of control (dose: 200.0 mg/kg/injection, schedule: Q01DX009 (ip), vehicle: acetone); 96 % of control under setting [17].
`COCP(=O)(OC)OC`: the T/C is, setting by setting: (dose: 100.0 mg/kg/injection, schedule: Q04DX003 (ip), vehicle: saline) 116 % of control; (dose: 200.0 mg/kg/injection, schedule: Q04DX003 (ip), vehicle: saline) 94 % of control; (dose: 400.0 mg/kg/injection, schedule: Q04DX003 (ip), vehicle: saline) 100 % of control.
For the compound `CN(C)N=Nc1ccccc1Cl`, the T/C (dose: 25.0 mg/kg/injection, schedule: Q01DX009 (ip), vehicle: saline with Tween-80) was 106 % of control; the T/C (dose: 50.0 mg/kg/injection, schedule: Q01DX009 (ip), vehicle: saline with Tween-80) was 120 % of control; the T/C (dose: 50.0 mg/kg/injection, schedule: Q04DX003 (ip), vehicle: Klucel (hydroxypropylcellulose) (HPC)) is 97 % of control; the T/C under setting [6] is 95 % of control; the T/C under setting [11] was 123 % of control; the T/C under setting [18] is 102 % of control and 103 % of control. Further, the T/C reads like this: under setting [19], 103 % of control and 111 % of control; under setting [20], 113 % of control.
In the case of `Cc1cccc(Cl)c1OCC(N)=O`, the T/C is 111 % of control (dose: 100.0 mg/kg/injection, schedule: Q04DX002 (ip), vehicle: saline with Tween-80); 103 % of control (dose: 200.0 mg/kg/injection, schedule: Q04DX002 (ip), vehicle: saline with Tween-80); 111 % of control under setting [21].
On to `CCCCCCCCCCCCCCCCC[CH2][Sn]([Cl])([CH2]CCCCCCCCCCCCCCCCC)[CH2]CCCCCCCCCCCCCCCCC`, for which the T/C was 92 % of control under setting [9]; 100 % of control under setting [10]; 96 % of control (dose: 400.0 mg/kg/injection, schedule: Q04DX002 (ip), vehicle: Klucel (hydroxypropylcellulose) (HPC)).
Turning to `Cc1nc(SCc2ccc(Cl)cc2)nc(N2CC2)c1Br`, the T/C reads like this: (dose: 59.0 mg/kg/injection, schedule: Q01DX Z (ip), vehicle: methylcellulose (MC)) 94 % of control; (dose: 88.0 mg/kg/injection, schedule: Q01DX Z (ip), vehicle: methylcellulose (MC)) 86 % of control; (dose: 200.0 mg/kg/injection, schedule: Q01DX Z (ip), vehicle: methylcellulose (MC)) 95 % of control.
As to `NC(=S)N/N=C/c1ccc(OC(=O)COc2ccccc2Cl)cn1`, the T/C runs as follows: under setting [14], 124 % of control; under setting [16], 93 % of control.
Turning to `Nc1nc([Se])c2ncn(C3OC(CO)C(O)C3O)c2n1` (centres undefined), the T/C (dose: 10.0 mg/kg/injection, schedule: Q01DX009 (ip), vehicle: saline) was 179 % of control; the T/C (dose: 12.5 mg/kg/injection, schedule: Q01DX009 (ip), vehicle: saline) is 208 % of control and 213 % of control; the T/C (dose: 20.0 mg/kg/injection, schedule: Q01DX009 (ip), vehicle: saline) was 182 % of control; the T/C (dose: 25.0 mg/kg/injection, schedule: Q01DX009 (ip), vehicle: saline) was 201 % of control and 229 % of control; the T/C under setting [22] is 91 % of control.
On to `c1ccc(P(OCCCCOP(c2ccccc2)c2ccccc2)c2ccccc2)cc1`, for which the T/C is 95 % of control (dose: 50.0 mg/kg/injection, schedule: Q01DX001 (ip), vehicle: saline); 103 % of control under setting [3]; 97 % of control under setting [1]; 114 % of control under setting [4]; 86 % of control under setting [2]; 103 % of control under setting [5]. Further, the T/C under setting [17] was 95 % of control.
For the compound `CCO[Si](C)(C)CCl`, the T/C was 98 % of control under setting [1], 101 % of control under setting [2] and 106 % of control under setting [17].
Regarding `CC1(C)C2(SCCS2)C(C)(C)C12SCCS2`, the T/C is, setting by setting: under setting [6], 96 % of control; under setting [7], 95 % of control; under setting [8], 104 % of control.
In the case of `NC(=S)N/N=C/C(=O)O`, the T/C is 91 % of control under setting [1], 89 % of control under setting [2] and 89 % of control under setting [17].
With `CCOC(=O)C1=C(C)NC(=O)NN1C(=O)OCC`, under setting [22], the T/C is 113 % of control.
As to `CCCC(=O)OC1CC(C)CCC1C(C)C` (centres undefined), the T/C is, setting by setting: (dose: 25.6 mg/kg/injection, schedule: Q04DX002 (ip), vehicle: saline with Tween-80) 96 % of control; (dose: 64.0 mg/kg/injection, schedule: Q04DX002 (ip), vehicle: saline with Tween-80) 96 % of control; under setting [11], 90 % of control; under setting [14], 88 % of control; (dose: 160.0 mg/kg/injection, schedule: Q04DX002 (ip), vehicle: saline with Tween-80) 92 % of control; under setting [12], 94 % of control. The T/C runs as follows: under setting [15], 94 % of control; under setting [13], 92 % of control; under setting [21], 96 % of control; under setting [16], 100 % of control.

Source of the values: PubChem BioAssay AID248 (DTP/NCI, 2004).
